Measurements taken from patent publication US20050112573A1, “Method of detecting toxic substance” (priority 2001, published 2005).

Test system: yeast genes (level of expressed mRNA)
Test: DNA chip analysis of expressed mRNA of yeast genes after 2 h culture with a toxic chemical substance
Format: cell-based, Saccharomyces cerevisiae S288C
Conditions: for The level of expressed mRNA in the presence of chemical substance/: ratio to no chemical; for The level of expressed mRNA in the presence of chemical substance/ (ratio to absence): transport facilitation protein gene
Method: Yeast (Saccharomyces cerevtisiae S288C (α SUC2mal mel gap2 CUP1)) were cultured at 25° C. on YPD medium (yeast extract 1%, polypepton 2%, glucose 2%). One of toxic chemical substances was added to the cell at logarithmic growth phase, and the cell was further cultured for two hours. Cell was cultured without any chemical substance in the same condition, and was used as control. Concentrations of the chemical substances were defined to inhibit the growth of the yeast but not lead to death.
After the completion of cultivation, the culture was centrifuged to collect the cells. To the cells, sodium acetate buffer (50 mM sodium acetate, 10 mM EDTA, 1% SDS) was added, and the mixture was shaken at 65° C. for five minutes, followed by returning to room temperature, and obtaining the supernatant, which procedure was repeated two times. To the supernatant, ½ amount of a solution of phenol/chloroform was added, and the mixture was centrifuged to give a supernatant, which was added with an equal amount of chloroform, and the mixture was centrifuged to give a supernatant. To the supernatant, an equal amount of isopropanol containing 0.3 M sodium acetate was added, and the mixture was allowed to stand at room temperature for 30 minutes, after which the mixture was centrifuged to give a sediment of the whole RNAs. Seventy % ethanol was added to the sediment, and the mixture was again centrifuged to give a sediment, which was then dried and dissolved in water. mRNA was isolated from the whole RNAs as followings. In view of the fact that a poly A chain is attached to the 3′ terminus of mRNA, a polynucleotide having a poly T structure which was immobilized on the surface of latex beads was used to trap the mRNA, and then the mRNA was washed and eluted with spine column (Oligotex-dT30<Super>mRNA Purification Kit, Takara). Reverse transcription of the mRNA was conducted with a reverse transcriptase (Super Script II Reverse Transcriptase; catalogue No. 18064-014, GibcoBRL) using fluorescence-labeled nucleotides to give cDNAs that were introduced with Cy3-dUTP or Cy5-dUTP during the reverse transcription.
The labeled cDNAs were dissolved in TE buffer (10 mM Tris-HCl/1 mM EDTA, pH8.0), and the solution was dropped on the DNA chip containing the whole genes of yeast (DNA Chip Research Inc. Japan) so that the cDNAs were hybridized on the DNA chip at 65° C. for over 12 hours. The fluoresces intensity of the DNA chip was read with a scanner, and the ratio relative to the fluorescence intensity resulting from the absence of chemical substance was estimated as the following, which is shown in Tables 1 to 9: [formula]
In the Tables, “Intensity” indicated in the rightmost column is a value of the level of expressed mRNA of each gene in control cells as divided by the average level of the expressions of the whole genes.

## sodium dodecylbenzosulfonate [(17)]
Yeast gene YDL078C, ratio of DNA chip fluorescence intensity to that without chemical substance
  The level of expressed mRNA in the presence of chemical substance/ in its absence, gene YDL078C: 1.1
Yeast gene YDL095W
  The level of expressed mRNA in the presence of chemical substance/in the absence of chemical substance: 0.7
Yeast gene YDL113C
  The level of expressed mRNA in the presence of chemical substance/: 1.2
Yeast gene YDL123W
  The level of expressed mRNA in the presence of chemical substance/: 1.1
Yeast gene YDL124W
  The level of expressed mRNA in the presence of chemical substance/in the absence of chemical substance: 2.2
Yeast gene YDL128W
  The level of expressed mRNA in the presence of chemical substance/ (ratio to absence): 0.9
Yeast gene YDL149W
  The level of expressed mRNA in the presence of chemical substance/ (ratio to absence): 0.8
Yeast gene YDL174C
  The level of expressed mRNA in the presence of chemical substance/in the absence of chemical substance: 2.2
Yeast gene YDL198C
  The level of expressed mRNA in the presence of chemical substance/ (ratio to absence): 1.5
Yeast gene YDL206W
  The level of expressed mRNA in the presence of chemical substance/ (ratio to absence): 1.0
Yeast gene YDL210W
  The level of expressed mRNA in the presence of chemical substance/ (ratio to absence): 1.1
Yeast gene YDL215C, ratio of DNA chip fluorescence intensity to that without chemical substance
  The level of expressed mRNA in the presence of chemical substance/ (in its absence), gene YDL215C: 1.1
Yeast gene YDL234C
  The level of expressed mRNA in the presence of chemical substance/: 2.3
Yeast gene YDL238C
  The level of expressed mRNA in the presence of chemical substance/The level of expressed mRNA in the absence of chemical substance: 1.1
Yeast gene YDL242W
  The level of expressed mRNA in the presence of chemical substance/: 0.9
Yeast gene YDL243C
  The level of expressed mRNA in the presence of chemical substance/in the absence of chemical substance: 1.8
Yeast gene YDL245C
  The level of expressed mRNA in the presence of chemical substance/in the absence of chemical substance: 1.0
  The level of expressed mRNA in the presence of chemical substance/ (ratio to absence): 1.0
Yeast gene YDL246C
  The level of expressed mRNA in the presence of chemical substance/in the absence of chemical substance: 1.8
Yeast gene YDR001C
  The level of expressed mRNA in the presence of chemical substance/in the absence of chemical substance: 1.1
Yeast gene YDR018C
  The level of expressed mRNA in the presence of chemical substance/: 0.9
Yeast gene YDR038C
  The level of expressed mRNA in the presence of chemical substance/ (ratio to absence): 1.3
Yeast gene YDR039C
  The level of expressed mRNA in the presence of chemical substance/ (ratio to absence): 1.1
Yeast gene YDR040C
  The level of expressed mRNA in the presence of chemical substance/ (ratio to absence): 1.4
Yeast gene YDR055W
  The level of expressed mRNA in the presence of chemical substance/The level of expressed mRNA in the absence of chemical substance: 2.0
Yeast gene YDR056C
  The level of expressed mRNA in the presence of chemical substance/: 1.2
Yeast gene YDR058C
  The level of expressed mRNA in the presence of chemical substance/in the absence of chemical substance: 1.1
Yeast gene YDR072C
  The level of expressed mRNA in the presence of chemical substance/in the absence of chemical substance: 1.9
Yeast gene YDR073W, ratio of DNA chip fluorescence intensity to that without chemical substance
  The level of expressed mRNA in the presence of chemical substance/ (in its absence), gene YDR073W: 1.8
Yeast gene YDR079W, energy system protein genes, 2 h culture with the chemical, ratio to control without chemical
  The level of expressed mRNA in the presence of chemical substance/ in its absence, gene YDR079W: 1.1
Yeast gene YDR079W, mitochondria-located protein genes, 2 h culture with chemical
  The level of expressed mRNA in the presence of chemical substance/ (ratio to absence), gene YDR079W: 1.1
Yeast gene YDR084C
  The level of expressed mRNA in the presence of chemical substance/The level of expressed mRNA in the absence of chemical substance: 2.0
Yeast gene YDR085C
  The level of expressed mRNA in the presence of chemical substance/The level of expressed mRNA in the absence of chemical substance: 1.3
Yeast gene YDR104C
  The level of expressed mRNA in the presence of chemical substance/The level of expressed mRNA in the absence of chemical substance: 0.9
Yeast gene YDR115W
  The level of expressed mRNA in the presence of chemical substance/The level of expressed mRNA in the absence of chemical substance: 1.2
Yeast gene YDR127W
  The level of expressed mRNA in the presence of chemical substance/in the absence of chemical substance: 0.9
Yeast gene YDR132C
  The level of expressed mRNA in the presence of chemical substance/: 1.0
Yeast gene YDR154C
  The level of expressed mRNA in the presence of chemical substance/: 1.5
Yeast gene YDR158W
  The level of expressed mRNA in the presence of chemical substance/in the absence of chemical substance: 1.0
Yeast gene YDR202C
  The level of expressed mRNA in the presence of chemical substance/: 1.0
Yeast gene YDR204W
  The level of expressed mRNA in the presence of chemical substance/in the absence of chemical substance: 1.1
Yeast gene YDR223W
  The level of expressed mRNA in the presence of chemical substance/: 0.9
Yeast gene YDR259C
  The level of expressed mRNA in the presence of chemical substance/The level of expressed mRNA in the absence of chemical substance: 1.0
Yeast gene YDR261C
  The level of expressed mRNA in the presence of chemical substance/in the absence of chemical substance: 0.9
Yeast gene YDR270W
  The level of expressed mRNA in the presence of chemical substance/ (ratio to absence): 0.9
Yeast gene YDR272W
  The level of expressed mRNA in the presence of chemical substance/in the absence of chemical substance: 1.4
Yeast gene YDR295C
  The level of expressed mRNA in the presence of chemical substance/: 0.8
Yeast gene YDR297W, ratio of DNA chip fluorescence intensity to that without chemical substance
  The level of expressed mRNA in the presence of chemical substance/ (in its absence), gene YDR297W: 1.9
